Drawing on ChEMBL document CHEMBL5331084, “Structure-based lead optimization of peptide-based vinyl methyl ketones as SARS-CoV-2 main protease inhibitors” (Eur J Med Chem, 2023), this text covers Ki, inhibition and CC50 for six molecules.

What is called Ki is a measure of affinity in units of concentration, obtained from inhibition or displacement. Usually CC50 stands for the concentration that lowers cell viability or growth by half. Low values mean greater toxicity to the cells, high ones lower toxicity to the cells.

Structures are written as SMILES. The source made the active and inactive calls. No cut-off for these calls is given here.

The target in series [1] is Replicase polyprotein 1ab (Severe acute respiratory syndrome coronavirus 2, UniProt P0DTD1). In words: Inhibition of SARS-CoV-2 MPro using Dabcyl-KTSAVLQSGFRKME-Edans as substrate assessed as inhibition constant measured for 10 mins by FRET assay.
The target in series [2] is T1, Procathepsin L (Homo sapiens, UniProt P07711). In words: Inhibition of human Cathepsin L using Cbz-Phe-Arg-AMC as substrate assessed as inhibition constant measured for 10 mins by fluorescence assay.
Target sequence in this assay (P07711 whole entry): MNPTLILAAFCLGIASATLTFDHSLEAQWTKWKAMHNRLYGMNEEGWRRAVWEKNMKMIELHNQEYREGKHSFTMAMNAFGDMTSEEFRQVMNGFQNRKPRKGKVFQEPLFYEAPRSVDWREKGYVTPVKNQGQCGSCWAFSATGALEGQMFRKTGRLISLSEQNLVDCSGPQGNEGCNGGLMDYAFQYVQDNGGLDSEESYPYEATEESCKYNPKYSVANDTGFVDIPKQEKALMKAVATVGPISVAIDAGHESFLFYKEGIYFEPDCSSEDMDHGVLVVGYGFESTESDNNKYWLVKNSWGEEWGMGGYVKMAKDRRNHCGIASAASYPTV
The target in a further series is Cathepsin B (Homo sapiens, UniProt P07858). In words: Inhibition of human Cathepsin B using Cbz-Phe-Arg-7-amino-4-methylcoumarin as substrate assessed as inhibition constant measured for 10 mins by fluorescence assay.
Series [3] concerns the target Replicase polyprotein 1ab (Severe acute respiratory syndrome coronavirus 2) (UniProt P0DTD1). In words: Inhibition of SARS-CoV-2 PLpro using Z-RLRGG-AMC acetate as substrate at 100 uM measured for 10 mins by fluorescence assay.
Series [4] concerns the target Genome polyprotein (dengue virus type 2) (UniProt P29990). Nature of the series: Inhibition of Dengue virus NS2B-NS3 protease Boc-GRR-AMC as substrate at 100 uM measured for 10 mins by fluorescence assay.
In series [5] the target is Replicase polyprotein 1ab (Severe acute respiratory syndrome coronavirus 2) (UniProt P0DTD1). Nature of the series: Covalent irreversible inhibition of SARS-CoV-2 MPro using Dabcyl-KTSAVLQSGFRKME-Edans as substrate assessed as reduction in enzyme recovery at 5 fold IC50 preincubated for 60 mins followed by dilution to 1 fold IC50 and substrate addition by fluorescence based assay.

Series [6] deals with T1, Procathepsin L. In words: Covalent irreversible inhibition of human Cathepsin L using Cbz-Phe-Arg-AMC as substrate assessed as reduction in enzyme recovery at 5 fold IC50 preincubated for 60 mins followed by dilution to 1 fold IC50 and substrate addition by fluorescence based assay.
Target sequence in this assay (P07711 114-333 limits assumed): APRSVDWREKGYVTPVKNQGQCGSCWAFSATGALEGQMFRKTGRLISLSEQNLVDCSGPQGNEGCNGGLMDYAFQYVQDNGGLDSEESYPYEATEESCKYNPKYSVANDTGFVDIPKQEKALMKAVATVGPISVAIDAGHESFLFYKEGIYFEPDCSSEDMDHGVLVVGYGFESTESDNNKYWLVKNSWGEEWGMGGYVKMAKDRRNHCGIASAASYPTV
The target in series [7] is Replicase polyprotein 1ab (Severe acute respiratory syndrome coronavirus 2) (UniProt P0DTD1). Nature of the series: Covalent irreversible inhibition of SARS-CoV-2 MPro using Dabcyl-KTSAVLQSGFRKME-Edans as substrate assessed as reduction in enzyme recovery at 10 fold IC50 preincubated for 60 mins followed by dialysis for 25 hrs further incubated with substrate and measured over 10 mins by fluorescence based assay. To be noted: time 1570.0 min.

For the next series, the system named is Huh-7. The series is classed as toxicity, cell-based. To be noted: human, huh-7, 24 h.

In the case of `CCC[C@H](NC(=O)OCc1ccccc1)C(=O)N[C@H](/C=C/C(C)=O)C[C@@H]1CCNC1=O`, in [1], the Ki stood at 1.77 µM.

For `CC(=O)/C=C/[C@H](C[C@@H]1CCNC1=O)NC(=O)[C@H](CC1CC1)NC(=O)OCc1ccccc1`, the Ki is 0.252 µM in series [1], 3.38 µM at Procathepsin L [2] and 7.88 µM at Cathepsin B. The inhibition entry in series [3] and in [4] was “inactive” each time. The inhibition entry (in [5]; at Procathepsin L [6]; in series [7]) was “Active” in each case. The same molecule displayed a CC50 with Huh-7 of 100 µM.

`CC(=O)/C=C/[C@H](C[C@@H]1CCNC1=O)NC(=O)[C@H](CC(C)(C)C)NC(=O)OCc1ccccc1`: the Ki in series [1] came to 0.416 µM.

Regarding `CC(=O)/C=C/[C@H](C[C@@H]1CCNC1=O)NC(=O)[C@H](CC1CCCCC1)NC(=O)OCc1ccccc1`, the Ki stood at 0.184 µM in series [1], 0.252 µM at Procathepsin L [2] and 14.4 µM at Cathepsin B. In addition, the inhibition result in series [3] and in series [4] was “inactive” each time. The inhibition entry (in series [5]; at Procathepsin L [6]; in series [7]) was “Active” throughout. For the same molecule, in the series on Huh-7, the CC50 was 14.5 µM.

Turning to `CCCC[C@H](NC(=O)OCc1ccccc1)C(=O)N[C@H](/C=C/C(C)=O)C[C@@H]1CCNC1=O`, the figures for the Ki (in [1]; on Procathepsin L [2]; on Cathepsin B) were 0.26 µM, 1.92 µM and 11.1 µM, respectively. Also, the inhibition result in series [3] and in series [4] was “inactive” in each case. In addition, the inhibition entry (in series [5]; at Procathepsin L [6]) was “Active” each time. The same molecule yielded a CC50 in the series with Huh-7 of 60.9 µM.

Take `CC(=O)/C=C/[C@H](C[C@@H]1CCNC1=O)NC(=O)[C@H](CC(C)C)NC(=O)OCc1ccccc1`: in [1], the Ki was determined as 0.386 µM.
